{
  "source": "patent US20120059005A1",
  "about": "“COMBINATION OF (A) A PHOSPHOINOSITIDE 3-KINASE INHIBITOR AND (B) AN ANTIDIABETIC COMPOUND FOR USE IN THE TREATMENT OF PROLIFERATIVE DISEASES” (NOVARTIS AG, priority 2009, published 2012)",
  "key": {"[1]": {"method": "0.2 mL of H520 tumor cell suspension (1×10^7 cells) is injected subcutaneously in the right flank of 8-week old female nu/nu (nude) mice (Harlan Laboratories, Indianapolis, Ind.) having a body weight (BW) range of 18.1-26.9 g on Day 1 of the study. Tumors are monitored twice weekly and then daily as their mean volume approaches 120-180 mm^3. […] Tumor weight can be estimated with the assumption that 1 mg is equivalent to 1 mrn^3 of tumor volume.\n(§1) The 11 groups of nude mice are treated as follows. One group of eight mice serves as Controls (C or Control) for all analyses and is administered intraperitoneally (i.p.) 50 mM sodium acetate at pH 4 (Vehicle 1) and then administered by oral gavage (p.o.) a composition comprising 10% N-methylpyrrolidone: 90% polyethylene glycol 300 (PEG 300) (Vehicle 2). […] Metformin is dissolved in 50 mM sodium acetate at pH 4 for dosing,\nCompound C is stored at −20° C. protected from light. Stock solutions (10×) in 100% N-methylpyrrolidone (NMP) are prepared every five days, aliquotted, and stored in the dark at room temperature. On each treatment day, stock solution aliquots are diluted with polyethylene glycol (PEG300) to provide the formulated drug (Compound A or Compound C) in 10% NMP: 90% PEG300, Dosing solutions are protected from light and the formulated drug is administered within 1 hour after preparation.\nFor combination therapies, Compound A or Compound C is administered by oral gavage (p.o.) within 30 minutes after the intraperitoneal (i.p.) administration of metformin, except on Day 20 when Compound A or Compound C is given immediately after metformin.\n(§2) Paclitaxel (Natural Pharmaceuticals, Inc., Beverly, Mass., USA) is administered by bolus tail-vein injections (i.v.) once daily on alternate days for five doses. Paclitaxel is dissolved in 50% ethanol and 50% Cremophor® EL to prepare a 10× stock solution stored at room temperature. On each day of dosing, an aliquot of the pad itaxel stock solution is diluted with 5% dextrose in water to yield a dosing solution containing 5% ethanol and 5% Cremophor® EL."}, "[2]": {"tested_on": "H460 non-small cell lung tumors", "test": "H460 xenograft 12-day tumor growth inhibition assay", "type": "in vivo, nude mice", "settings": "for Mean Tumor Vol. Change / Regression / T/C: Day 12", "method": "H460 human non-small cell lung cancer (NSCLC) cells are treated with, different doses of 2-Methyl-2-[4-(3-methyl-2-oxo-8-quinolln-3-yl-2,3-dihydro-imidazo[4, 5-c]quinolin-1-yl)-phenyl]-propionitrile monotosylate salt (also known as COMPOUND A) or 5,-(2,6-di-rnorpholin-4-yl-pyrimidin-4-yl)-4-trifluoromethyl-pyridin-2-ylamine hydrochloride salt (also known as COMPOUND C), a single dose of metformin or both agents in combination, The H460 human NSCLC cells (NCl-H460. ATCC-HTB-177, available from American Type Culture Collection, FRockville, Md. US) are derived from the pleural fluid of a patient with large cell cancer of the lung.\nH460 tumor cells are grown in RPMI 1640 medium containing 100 units/mL penicillin G sodium, 100 μg/mL streptomycin sulfate, and 25 μg/mL gentamicin. The medium is supplemented with 10% fetal bovine serum and 2 mM glutamine. The cells are cultured in tissue culture flasks in a humidified incubator at 37° C., in an atmosphere of 5% CO2 and 95% air. The cells are harvested for injection into 9-week old female nu/nu (nude) mice (Harlan Laboratories, Indianapolis, Ind.) by detaching the monolayers with 2× trypsin and resuspending at 5×10^7 cells/mL in phosphate-buffered saline.\n(§3) 0.2 mL of H460 tumor cell suspension (1×10^7 cells) is injected subcutaneously in the right flank of 9-week old female nu/nu (nude) mice (Harlan Laboratories, Indianapolis, Ind.) having a body weight (BW) range of 18.1-26.9 g on Day 1 of the study. Tumors are monitored twice weekly and then daily as their mean volume approaches 100-150 mm^3. Ten days after implantation, the mice are sorted into 11 groups of eight mice having individual tumor sizes of 75-196 mm^3 and a group mean tumor size of 119-122 mm^3. Tumor volume in mm^3 is determined using the formula [(width)^2×(length)]/2, where width width of the tumor in mm and length length of the tumor in mm. Tumor weight can be estimated with the assumption that 1 mg is equivalent to 1 mm^3 of tumor volume.\nas §1, with “N-methylpyrrolidone” for “N-methylpyrrolidone:”, “(PEG300)” for “(PEG 300)”, “dosing.” for “dosing,”\n(§4) Compound A is stored at −20° C. Compound C is stored at −20° C. protected from light. Stock solutions (10×) in 100% N-rnethylpyrrolidone (NMP) are prepared every five days, aliquotted, and stored in the dark at room temperature. On each treatment day, stock solution aliquots are diluted with polyethylene glycol (PEG300) to provide the formulated drug (Compound A or Compound C) in 10% NMP: 90% PEG300. Dosing solutions are protected from light, and the formulated drug is administered within 1 hour after preparation.\n(§5) For combination therapies, Compound A or Compound C are administered by oral gavage (p.o.) within 30 minutes after the intraperitoneal (i.p.) administration of metformin, except on Day 20 when Compound A or Compound C is given immediately after metformin.\nas §2, with “50% Crernophor®” for “50% Cremophor®”, “the paclitaxel” for “the pad itaxel”\n(§6) In all groups, the dosing volume of 10 mL/kg (0.2 mL/20 g mouse) is scaled to the weight of each animal as determined on the day of dosing, except on weekends when the previous BW is carried fontvard."}, "[3]": {"method": "as §3\nas §1, with “N-methylpyrrolidone” for “N-methylpyrrolidone:”, “(PEG300)” for “(PEG 300)”, “dosing.” for “dosing,”\nas §4, §5\nas §2, with “50% Crernophor®” for “50% Cremophor®”, “the paclitaxel” for “the pad itaxel”\nas §6", "remark": "listed apart in the source"}, "[4]": {"settings": "Paclitaxel 30 mg/kg i.v., 1x on alternate days for 5 doses"}, "[5]": {"settings": "female, nu/nu (nude), mouse, in vivo, po, 41.1 mg/kg"}, "[6]": {"settings": "female, nu/nu (nude), mouse, in vivo, po, 68.5 mg/kg"}, "[7]": {"settings": "Compound A 41.1 mg/kg p.o., 1x daily"}, "[8]": {"settings": "Compound A 68.5 mg/kg p.o., 1x daily"}, "[9]": {"settings": "Compound C 32.7 mg/kg p.o., 1x daily"}, "[10]": {"settings": "Compound C 54.4 mg/kg p.o., 1x daily until day 10 (stopped due to toxicity)"}, "[11]": {"settings": "Metformin 192.3 mg/kg i.p., 1x daily"}},
  "note": "Like-named read-outs stand apart in the source and are kept apart here.",
  "data": [
    {"smiles": "CC(=O)O[C@H]1C(=O)[C@@]2(C)[C@H]([C@H](OC(=O)c3ccccc3)[C@]3(O)C[C@H](OC(=O)[C@H](O)[C@@H](NC(=O)c4ccccc4)c4ccccc4)C(C)=C1C3(C)C)[C@]1(OC(C)=O)CO[C@@H]1C[C@@H]2O", "note": "[Paclitaxel, reference compound]", "values": [
      {"measurement": "Dead/Total", "setting": "[1]; [4]", "value": "0/8"},
      {"measurement": "Mean Tumor Vol. Change", "setting": "[2]; [4]", "value": 227, "unit": "mm^3"},
      {"measurement": "Regression", "setting": "[2]; [4]", "value": "None"},
      {"measurement": "T/C", "setting": "[2]; [4]", "value": 15, "unit": "%"},
      {"measurement": "Dead/Total", "setting": "[3]; [4]", "value": "0/8"}
    ]},
    {"smiles": "Cn1c(=O)n(-c2ccc(C(C)(C)C#N)cc2)c2c3cc(-c4cnc5ccccc5c4)ccc3ncc21", "note": "[Compound A, 2-Methyl-2-[4-(3-methyl-2-oxo-8-quinolin-3-yl-2,3-dihydro-imidazo[4,5-c]quinolin-1-yl)-phenyl]-propionitrile]", "values": [
      {"measurement": "Dead/Total", "setting": "[1]; [5]", "value": "0/8"},
      {"measurement": "Dead/Total", "setting": "[1]; [6]", "value": "1/8"},
      {"measurement": "Mean Body Weight Change", "setting": "[1]; mouse, in vivo, po, 68.5 mg/kg", "value": "−1.3%, Day 7"},
      {"measurement": "Mean Tumor Vol. Change", "setting": "[2]; [7]", "value": 809, "unit": "mm^3"},
      {"measurement": "Regression", "setting": "[2]; [7]", "value": "None"},
      {"measurement": "T/C", "setting": "[2]; [7]", "value": "54% (ns,"},
      {"measurement": "Mean Tumor Vol. Change", "setting": "[2]; [8]", "value": 448, "unit": "mm^3"},
      {"measurement": "Regression", "setting": "[2]; [8]", "value": "None"},
      {"measurement": "T/C", "setting": "[2]; [8]", "value": "30% (ns,"},
      {"measurement": "Dead/Total", "setting": "[3]; [5]", "value": "0/8"},
      {"measurement": "Dead/Total", "setting": "[3]; [6]", "value": "0/8"}
    ]},
    {"smiles": "Nc1cc(C(F)(F)F)c(-c2cc(N3CCOCC3)nc(N3CCOCC3)n2)cn1", "note": "[Compound C, 5-(2,6-di-morpholin-4-yl-pyrimidin-4-yl)-4-trifluoromethyl-pyridin-2-ylamine]", "values": [
      {"measurement": "Mean Tumor Vol. Change", "setting": "[2]; [9]", "value": 880, "unit": "mm^3"},
      {"measurement": "Regression", "setting": "[2]; [9]", "value": "None"},
      {"measurement": "T/C", "setting": "[2]; [9]", "value": "59% (ns,"},
      {"measurement": "Mean Tumor Vol. Change", "setting": "[2]; [10]", "value": 110, "unit": "mm^3"},
      {"measurement": "Regression", "setting": "[2]; [10]", "value": "None"},
      {"measurement": "T/C", "setting": "[2]; Compound C 54.4 mg/kg p.o., 1x daily until day 10 (stopped due to toxicity), not evaluable (ne)", "value": "7% (ne,"}
    ]},
    {"smiles": "CN(C)C(=N)N=C(N)N", "note": "[Metformin, dimethyldiguanide, reference compound]", "values": [
      {"measurement": "Dead/Total", "setting": "[1]; [11]", "value": "0/8"},
      {"measurement": "Mean Tumor Vol. Change", "setting": "[2]; [11]", "value": 1516, "unit": "mm^3"},
      {"measurement": "Regression", "setting": "[2]; [11]", "value": "None"},
      {"measurement": "T/C", "setting": "[2]; [11]", "value": "101% (ns,"},
      {"measurement": "enhancement of efficacy or tolerability in combination with COMPOUND C", "setting": "[2]; metformin in combination with COMPOUND C, overall conclusion", "value": "does not appear to enhance efficacy or tolerability"},
      {"measurement": "impact on tumor growth in the 12-day tumor growth inhibition assay", "setting": "[2]; metformin monotherapy at 192.3 mg/kg", "value": "did not appear to impact tumor growth"},
      {"measurement": "Dead/Total", "setting": "[3]; [11]", "value": "0/8"}
    ]}
  ]
}
